Data: patent US10941121B2 (AZIENDA OSPEDALIERA UNIVERSITARIA SENESE, priority 2015, dated 2021)
Like-named read-outs stand apart in the source and are kept apart here.

Assays:
[1] = tested on: Hepatitis C Virus (HCV) replicon system; experiment: HCV replicon system, luciferase method in LucUbiNeo-ET cells; conditions: for EC50: read-out: EC50 (μM) HCV replicon system
Lunet/HuH7 cells = experiment: Cytotoxicity, MTT method in LUNET cells; format: cell-based; conditions: MMT method in LUNET cells; read-out: CC50 (μM) non-infected cells
Method: (§1) Toxicity (CC50) was analysed in the Lunet/HuH7 cells by the addition of 10 μL of MTT (3-(4,5-dimethylthiazol-2-yl)-2,5-diphenyltetrazolium bromide) per well. After 4 h of incubation at 37° C. in a humidified atmosphere with 5% CO2, the amount of formazan produced was quantified spectrophotometrically at 550/620 nm (C. Pannecouque et al, Nature protocol 2008; 3 (3): 427-434). […] These assays were done in duplicate.

[2] = tested on: human liver microsome (HLM); experiment: Microsomal Stability Assay; conditions: human liver microsomes, 37 °C, 60 min, compound 50 μM; percentage of not metabolized compound
[3] = Cytotoxicity in the JEV cell culture system; conditions: hamster
HIV (PBMC) = experiment: HIV infectious cell culture system in PBMC, HIV-1 RNA in supernatant; conditions: Human immunodeficiency virus 1, PBMC, 72 h, read-out: EC50 HIV (PBMC) 72 h
DDX3 Helicase [4] = target: T1, DDX3 Helicase (Homo sapiens, UniProt O00571); conditions: read-out: ID50 (μM) against DDX3 Helicase; n.a. = compound not active
PRRSV = PRRSV infectious cell culture system, plaque formation assay in MARC-145 cells; format: cell-based; conditions: Porcine reproductive and respiratory syndrome virus, MARC145; viral titre by plaque formation assay in MARC-145 cells
Method: According to the requirement of different experiments, MARC-145 cells were either infected with PRRSV at MOIs of 0.1, 1 or 10, or mock infected with phosphate-buffered saline (PBS). After 1 h incubation at 37° C., unbounded viruses were removed by washing thrice with PBS and cultured in DMEM supplemented with 8% FBS at 37° C. for various lengths of time. For the autophagy induction and inhibition experiments, MARC-145 cells were pretreated with varying concentrations of rapamycin or 3-MA for 4 h before viral infection. MARC-145 cells were then infected with PRRSV at MOI of 1. After 1 h incubation at 37° C., unbounded viruses were removed by washing thrice with PBS and cultured in DMEM supplemented with 2% FBS containing varying concentrations of compound, 3-MA or the corresponding amount of dimethyl sulfoxide (DMSO, control) at 37° C. for 24 h.

[5] = Cytotoxicity in PBMC, CellTiter 96 MTS viability assay; format: cell-based; conditions: human, human primary PBMCs
[6] = tested on: HIV-1 wild-type reference strain NL4-3; experiment: HIV-1 phenotypic assay, MT-2 cells then TZM-bl cells, luciferase; format: cell-based; conditions: Human immunodeficiency virus 1, NL43; first cycle in MT-2 cells, additional round in TZM-bl cells
JEV strain (NJ2008) = experiment: JEV infectious cell culture system, plaque formation assay in BHK-21 cells; conditions: Japanese encephalitis virus, BHK-21, read-out: JEV EC50
[7] = tested on: HCV Jc1 (genotype 2a virus); experiment: HCV infectious cell culture system, NS5A immunostaining; conditions: Hepatitis C virus, Huh7.5, read-out: HCV EC50
Water Solubility Assay = format: physicochemical; conditions: thermodynamic from solid
Method: Water Solubility Assay. Each solid compound (1 mg) was added to 1 mL of water. The samples were shaked in a shaker bath at room temperature for 24-36 h. The suspensions were filtered through a 0.45 μm nylon filter (Acrodisc), and the solubilized compound determined by LC-MS-MS assay. For each compound the determination was performed in triplicate.
For the quantification was used an LC-MS system consisted of a Varian apparatus (Varian Inc) including a vacuum solvent degassing unit, two pumps (212-LC), a Triple Quadrupole MSD (Mod. 320-LC) mass spectrometer with ES interface and Varian MS Workstation System Control Vers. 6.9 software. […] The flow rate was 0.2 mL min^−1 and injection volume was 5 μL. The instrument operated in positive mode and parameters were: detector 1850 V, drying gas pressure 25.0 psi, desolvation temperature 300.0° C., nebulizing gas 40.0 psi, needle 5000 V and shield 600 V. Nitrogen was used as nebulizer gas and drying gas. Collision induced dissociation was performed using Argon as the collision gas at a pressure of 1.8 mTorr in the collision cell.

[8] = Parallel Artificial Membrane Permeability Assay (PAMPA); format: in vitro ADME; conditions: for PAMPA membrane retention (RM %): value in brackets in the PAMPA cell
Method: Parallel Artificial Membrane Permeability Assay (PAMPA). Donor solution (0.5 mM) was prepared by diluting 1 mM dimethylsulfoxide (DMSO) compound stock solution using phosphate buffer (pH 7.4, 0.025 M). Filters were coated with 5 μL of a 1% (w/v) dodecane solution of phosphatidylcholine prepared from CHCl3 solution 10% w/v, for intestinal permeability. Donor solution (150 μL) was added to each well of the filter plate. To each well of the acceptor plate were added […] (50% DMSO in phosphate buffer). All compounds were tested in three different plates on different days. The sandwich was incubated for 5 h at room temperature under gentle shaking. After the incubation time, the plates were separated, and samples were taken from both receiver and donor sides and analyzed using LC with UV detection at 280 nm.
LC analysis were performed with a Varian Prostar HPLC system (Varian Analytical Instruments, USA) equipped with a binary pump with a manual injection valve and model Prostar 325 UV-VIS Detector.
Permeability (Papp) for PAMPA was calculated according to the following equation, obtained from Wohnsland and Faller and Sugano et al. equation with some modification in order to obtain permeability values in cm s^−1,
where VA is the volume in the acceptor well, VD is the volume in the donor well (cm^3), A is the “effective area” of the membrane (cm^2), t is the incubation time (s) and r the ratio between drug concentration in the acceptor and equilibrium concentration of the drug in the total volume (VD+VA). Drug concentration is estimated by using the peak area integration.
Membrane retentions (%) were calculated according to the following equation: […]
where r is the ratio between drug concentration in the acceptor and equilibrium concentration, D, A, and Eq represented drug concentration in the donor, acceptor and equilibrium solution, respectively.

[9] = Cytotoxicity in Huh7 cells, nuclei counts; conditions: human
DDX3 Helicase [10] = target: T1, DDX3 Helicase; experiment: biochemical
[11] = Cytotoxicity, MTT method in HuH7.5 cells; format: cell-based; conditions: human, non-infected, read-out: HCV CC50
Method: After 4 h of incubation at 37° C. in a humidified atmosphere with 5% CO2, the amount of formazan produced was quantified spectrophotometrically at 550/620 nm (C. Pannecouque et al, Nature protocol 2008; 3 (3): 427-434). […] These assays were done in duplicate.

[12] = Cytotoxicity, MTT method in LUNET cells; format: cell-based; conditions: human; MMT method in LUNET cells; read-out: CC50 (μM) non-infected cells
Method: as §1

HIV-1 (IIIB) = conditions: read-out: EC50 replication of HIV-1 (IIIB) in MT4-cells; cited from earlier work
MOLT-4 T-lymphocytic = conditions: cited from earlier work
DDX3 = DDX3 (Homo sapiens, UniProt O00571); conditions: literature values; cited from earlier work
in vitro = conditions: hamster
HIV = conditions: EI01D; read-out: EC50 inhibition of viral load of PBMCs infected with HIV; cited from earlier work
[13] = experimental aqueous solubility, read-out: LogS (converted)
[14] = room temperature, 24-36 h, read-out: Aq. Solub.
[15] = DENV CC50, Huh7 cells, DENV experiment
[16] = WNV CC50, Huh7 cells, WNV experiment

T1 sequence (O00571 whole entry): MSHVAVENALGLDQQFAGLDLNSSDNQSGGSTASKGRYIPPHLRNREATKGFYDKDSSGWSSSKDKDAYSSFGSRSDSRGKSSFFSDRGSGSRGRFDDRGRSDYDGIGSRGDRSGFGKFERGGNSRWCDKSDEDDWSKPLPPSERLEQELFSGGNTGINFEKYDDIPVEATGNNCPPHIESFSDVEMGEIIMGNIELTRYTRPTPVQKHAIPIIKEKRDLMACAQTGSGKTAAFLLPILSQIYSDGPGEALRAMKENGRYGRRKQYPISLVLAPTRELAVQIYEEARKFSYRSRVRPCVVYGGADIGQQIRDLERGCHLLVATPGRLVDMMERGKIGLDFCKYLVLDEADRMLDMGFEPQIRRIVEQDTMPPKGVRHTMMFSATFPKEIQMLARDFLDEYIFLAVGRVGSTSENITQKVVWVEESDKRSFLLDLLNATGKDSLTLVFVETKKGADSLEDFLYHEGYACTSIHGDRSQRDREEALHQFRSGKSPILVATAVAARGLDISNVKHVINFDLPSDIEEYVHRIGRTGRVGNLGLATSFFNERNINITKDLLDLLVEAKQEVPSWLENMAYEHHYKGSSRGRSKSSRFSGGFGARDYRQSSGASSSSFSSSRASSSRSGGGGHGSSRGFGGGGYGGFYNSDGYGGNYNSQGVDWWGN
Sequence of DDX3 (O00571 whole entry): as above

CCCCCCc1cn(-c2ccc(NC(=O)Nc3ccccc3C(F)(F)F)cc2)nn1 [Compound 8d]
EC50 ([1]; luciferase method in LucUbiNeo-ET cells, 2 days): 0.67 µM
CC50 (Lunet/HuH7 cells): 290 µM

CCCCc1cn(-c2cccc(S(=O)(=O)Nc3ccccc3C(F)(F)F)c2)nn1 [Compound 64d, 3-(4-butyl-1H-1,2,3-triazol-1-yl)-N-(2-(trifluoromethyl)phenyl)benzenesulfonamide]
Metabolic stability (Sability %) [2]: 99%
CC50 [3]: > 50 µM
EC50 (HIV (PBMC)): 31 µM
IC50 (DDX3 Helicase [4]): 0.4 µM
EC50 (PRRSV): 30 µM
CC50 at 24 h ([5]; 24 h): 2130 µM
CC50 at 48 h ([5]; 48 h): 332 µM
CC50 at 72 h [5]: 198 µM
EC50 [6]: 12.7 µM
EC50 (JEV strain (NJ2008)): 6.7 µM

Cc1ccccc1NC(=O)Nc1ccc(-n2cc(CCC(C)C)nn2)cc1 [Compound 20b, 1-(4-(4-isopentyl-1H-1,2,3-triazol-1-yl)phenyl)-3-o-tolylurea]
activity against HCV, in words [1]: best activity
EC50 ([1]; Hepatitis C virus, 48 h): 0.8 µM
EC50 [7]: 30 µM
solubility (Water Solubility Assay; [13]): < 0.00251 µM
solubility (Water Solubility Assay; [14]): < 0.001 µg/mL
Papp at 5 h, 0.5 mM ([8]; PAMPA, phosphatidylcholine in dodecane, pH 7.4, 5 h, room temperature, read-out: PAMPA Papp *10^−6 (cm/s) GI): 1.93 ×10⁻⁶ cm/s
PAMPA membrane retention (RM %) [8]: 26.7%
CC50 at 48 h [9, 15]: 40.4 µM
CC50 at 48 h [9, 16]: 62.3 µM
IC50 (DDX3 Helicase [10]): 0.5 µM
CC50 [11]: 209 µM
CC50 [12]: 189 µM

O=C(CN1C(=O)/C(=C/c2cccc(Br)c2)SC1=S)Nc1ccccc1O [FE15]
EC50 (HIV-1 (IIIB)): 86.7 µM
CC50 (MOLT-4 T-lymphocytic): > 200 µM
Ki (DDX3): 5.4 µM

CCCCc1cn(-c2ccc(NC(=O)Nc3ccccc3C(F)(F)F)cc2)nn1 [Compound 22a, 1-(4-(4-butyl-1H-1,2,3-triazol-1-yl)phenyl)-3-(2-(trifluoromethyl)phenyl)urea]
activity against HCV, in words [1]: best activity
EC50 ([1]; Hepatitis C virus, 48 h): 0.3 µM
EC50 [7]: 0.6 µM
solubility (Water Solubility Assay; [13]): 0.0372 µM
solubility (Water Solubility Assay; [14]): 0.107 µg/mL
PAMPA Papp *10^−6 (cm/s) GI ([8]; phosphatidylcholine in dodecane, pH 7.4, 5 h, room temperature): 7.47 *10^−6 cm/s
PAMPA membrane retention (RM %) [8]: 23.9%
CC50 at 48 h [9, 15]: 178 µM
CC50 at 48 h [9, 16]: 145 µM
IC50 (DDX3 Helicase [10]): 0.3 µM
CC50 [11]: 94.4 µM
CC50 [12]: 200 µM

CCOP(=O)(OCC)OCCc1cn(-c2ccc(NC(=O)Nc3ccccc3C)cc2)nn1 [Compound 36, diethyl (2-(1-(4-(3-(o-tolyl)ureido)phenyl)-1H-1,2,3-triazol-4-yl)ethyl) phosphate]
EC50 ([1]; Hepatitis C virus, 48 h): 75 µM
CC50 (in vitro): > 50 µM
IC50 (DDX3 Helicase [4]): 0.9 µM
CC50 [12]: > 150 µM
EC50 (JEV strain (NJ2008)): 21.1 µM

Cc1ccccc1NC(=O)Nc1cccc([N+](=O)[O-])c1 [EI01D, reference compound]
activity against HCV, in words [1]: completely inactive
EC50 ([1]; Hepatitis C virus, 48 h): > 86 µM
EC50 (HIV): 10 µM
CC50 [3]: > 50 µM
EC50 (HIV (PBMC)): 10 µM
IC50 (DDX3 Helicase [4]): 1 µM
CC50 at 72 h [5]: 100 µM
CC50 [12]: 86 µM
EC50 (JEV strain (NJ2008)): 10 µM
